Drawing on patent publication US12161722B2, “Bifunctional heterocyclic compound having BTK degradation function via ubiquitin proteasome pathway, and use thereof” (KOREA RESEARCH INSTITUTE OF CHEMICAL TECHNOLOGY, priority 2021, dated 2024), this text covers DC50 for 19 compounds.

This experiment deals with T1, WT BTK protein (Homo sapiens, UniProt Q06187).
T1 construct: measured for intracellular BTK protein levels by Western blotting; endogenous in cells; host or cells: TMD-8 or RAMOS cells
T1 sequence (Q06187 whole entry): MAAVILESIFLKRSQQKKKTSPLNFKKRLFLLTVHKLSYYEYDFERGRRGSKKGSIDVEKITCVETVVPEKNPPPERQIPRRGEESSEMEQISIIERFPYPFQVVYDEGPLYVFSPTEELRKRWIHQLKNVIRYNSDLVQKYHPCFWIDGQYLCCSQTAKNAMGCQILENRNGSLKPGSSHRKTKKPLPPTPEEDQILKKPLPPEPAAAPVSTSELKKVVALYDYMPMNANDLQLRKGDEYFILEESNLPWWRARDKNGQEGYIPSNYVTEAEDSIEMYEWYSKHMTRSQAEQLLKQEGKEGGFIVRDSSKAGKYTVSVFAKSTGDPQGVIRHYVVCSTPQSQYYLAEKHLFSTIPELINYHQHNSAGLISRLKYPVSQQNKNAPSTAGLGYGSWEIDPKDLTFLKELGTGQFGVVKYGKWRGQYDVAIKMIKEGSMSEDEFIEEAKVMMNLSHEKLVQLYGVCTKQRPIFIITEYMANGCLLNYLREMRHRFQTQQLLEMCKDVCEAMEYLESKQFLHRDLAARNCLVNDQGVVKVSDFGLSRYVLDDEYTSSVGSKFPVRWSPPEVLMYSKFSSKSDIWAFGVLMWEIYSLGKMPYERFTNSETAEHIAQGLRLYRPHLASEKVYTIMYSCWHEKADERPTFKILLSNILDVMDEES
Kind of experiment: BTK protein degradation assay (Western blotting), WT BTK. The class given is cell-based. The following applies: concentration range accounting for 50% degradation of WT BTK protein, TMD-8 or RAMOS cells, 24 hours. Put shortly:
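TMD-8 cells (1×10^6 cells/mL) treated 24 h with compound serial dilutions, then lysed in RIPA. Equal protein loads analysed by Western blot for BTK with GAPDH/β-actin as loading controls; activity binned by concentration giving 50% WT BTK degradation.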
A word on the DC50: it is the concentration at which degradation of the target reaches its halfway point. `Cc1cccc(C)c1Nc1nn(C)c2nc(Nc3ccc(CCNC(=O)C4CCN(c5ccc6c(c5)C(=O)N(C5CCC(=O)NC5=O)C6=O)CC4)cc3)ncc12` (stereo not shown) [Compound 100, N-(4-((3-((2,6-dimethylphenyl)amino)-1-methyl-1H-pyrazolo[3,4-d]pyrimidin-6-yl)amino)phenethyl)-1-(2-(2,6-dioxopiperidin-3-yl)-1,3-dioxoisoindolin-5-yl)piperidine-4-carboxamide]: the DC50 fell in the range of 0.1 to 10 nM. As for `Cc1cccc(C)c1Nc1nn(C)c2nc(Nc3ccc(CCNC(=O)C4CCN(CC(=O)Nc5ccc6c(c5)C(=O)N(C5CCC(=O)NC5=O)C6=O)CC4)cc3)ncc12` (stereo not shown) [Compound 101, N-(4-((3-((2,6-dimethylphenyl)amino)-1-methyl-1H-pyrazolo[3,4-d]pyrimidin-6-yl)amino)phenethyl)-1-(2-((2-(2,6-dioxopiperidin-3-yl)-1,3-dioxoisoindolin-5-yl)amino)-2-oxoethyl)piperidine-4-carboxamide], the 50% degradation concentration (DC50) is 10 to 1000 nM.

Take `Cc1cccc(C)c1Nc1nn(C)c2nc(Nc3ccc(CCNC(=O)C4CCN(C(=O)Nc5ccc6c(c5)CN(C5CCC(=O)NC5=O)C6=O)CC4)cc3)ncc12` (stereo not shown) [Compound 102, N4-(4-((3-((2,6-Dimethylphenyl)amino)-1-methyl-1H-pyrazolo[3,4-d]pyrimidin-6-yl)amino)phenethyl)-N1-(2-(2,6-dioxopiperidin-3-yl)-1-oxoisoindolin-5-yl)piperidine-1,4-dicarboxamide]: the DC50 was in the range of 10 to 1000 nM. Next, `Cc1cccc(C)c1Nc1nn(C)c2nc(Nc3ccc4c(c3)CN(CC(=O)N3CCN(c5ccc6c(c5)CN(C5CCC(=O)NC5=O)C6=O)CC3)CC4)ncc12` (stereo not shown) [Compound 103, 3-(5-(4-(2-(7-((3-((2,6-dimethylphenyl)amino)-1-methyl-1H-pyrazolo[3,4-d]pyrimidin-6-yl)amino)-3,4-dihydroisoquinolin-2 (1H)-yl)acetyl)piperazin-1-yl)-1-oxoisoindolin-2-yl)piperidin-2,6-one]: 10 to 1000 nM. Consider `Cc1cccc(C)c1Nc1nn(C)c2nc(Nc3ccc4c(c3)CN(C(=O)CN3CCN(c5ccc6c(c5)CN(C5CCC(=O)NC5=O)C6=O)CC3)CC4)ncc12` (stereo not shown) [Compound 104, 3-(5-(4-(2-(7-((3-((2,6-Dimethylphenyl)amino)-1-methyl-1H-pyrazolo[3,4-d]pyrimidin-6-yl)amino)-3,4-dihydroisoquinolin-2 (1H)-yl)-2-oxoethyl)piperazin-1-yl)-1-oxoisoindolin-2-yl)piperidin-2,6-one], for which the 50% degradation concentration (DC50) was 0.1 to 10 nM. The result for `Cc1cccc(C)c1Nc1nn(C)c2nc(Nc3ccc4c(c3)CN(C(=O)COc3ccc5c(c3)CN(C3CCC(=O)NC3=O)C5=O)CC4)ncc12` (stereo not shown) [Compound 105, 3-(5-(2-(7-((3-((2,6-Dimethylphenyl)amino)-1-methyl-1H-pyrazolo[3,4-d]pyrimidin-6-yl)amino)-3,4-dihydroisoquinolin-2 (1H)-yl)-2-oxoethoxy)-1-oxoisoindolin-2-yl)piperidin-2,6-one] reads 0.1 to 10 nM; that for `Cc1cccc(C)c1Nc1nn(C)c2nc(Nc3ccc4c(c3)CN(CC(=O)N3CCC(Oc5ccc6c(c5)CN(C5CCC(=O)NC5=O)C6=O)CC3)CC4)ncc12` (stereo not shown) [Compound 106, 3-(5-((1-(2-(7-((3-((2,6-dimethylphenyl)amino)-1-methyl-1H-pyrazolo[3,4-d]pyrimidin-6-yl)amino)-3,4-dihydroisoquinolin-2 (1H)-yl)acetyl)piperidin-4-yl)oxy)-1-oxoisoindolin-2-yl)piperidin-2,6-one], 10 to 1000 nM.

`Cc1cccc(C)c1Nc1nn(C)c2nc(Nc3ccc4c(c3)CN(CC3CCN(c5ccc6c(c5)C(=O)N(C5CCC(=O)N(COC(=O)C(C)(C)C)C5=O)C6=O)CC3)CC4)ncc12` (stereo not shown) [Compound 107, (3-(5-(4-((7-((3-((2,6-dimethylphenyl)amino)-1-methyl-1H-pyrazolo[3,4-d]pyrimidin-6-yl)amino)-3,4-dihydroisoquinolin-2 (1H)-yl)methyl)piperidin-1-yl)-1,3-dioxoisoindolin-2-yl)-2,6-dioxopiperidin-1-yl)methyl pivalate]: the DC50 is 0.1 to 10 nM. Next, `Cc1cccc(C)c1Nc1nn(C)c2nc(Nc3ccc4c(c3)CN(CC(=O)Nc3ccc5c(c3)CN(C3CCC(=O)NC3=O)C5=O)CC4)ncc12` (stereo not shown) [Compound 108, 2-(7-((3-((2,6-Dimethylphenyl)amino)-1-methyl-1H-pyrazolo[3,4-d]pyrimidin-6-yl)amino)-3,4-dihydroisoquinolin-2 (1H)-yl)-N-(2-(2,6-dioxopiperidin-3-yl)-1-oxoisoindolin-5-yl)acetamide]: 0.1 to 10 nM; `Cc1cccc(C)c1Nc1nn(C)c2nc(Nc3ccc4c(c3)CCN(CC3CCN(c5ccc6c(c5)C(=O)N(C5CCC(=O)NC5=O)C6=O)CC3)C4)ncc12` (stereo not shown) [Compound 109, 5-(4-((6-((3-((2,6-Dimethylphenyl)amino)-1-methyl-1H-pyrazolo[3,4-d]pyrimidin-6-yl)amino)-3,4-dihydroisoquinolin-2 (1H)-yl)methyl)piperidin-1-yl)-2-(2,6-dioxopiperidin-3-yl)isoindoline-1,3-dione]: 10 to 1000 nM. Consider `Cc1cccc(C)c1Nc1nn(C)c2nc(Nc3ccc4c(c3)CCN(CC3CCN(C(=O)CNc5ccc6c(c5)C(=O)N(C5CCC(=O)NC5=O)C6=O)CC3)C4)ncc12` (stereo not shown) [Compound 110, 5-((2-(4-((6-((3-((2,6-Dimethylphenyl)amino)-1-methyl-1H-pyrazolo[3,4-d]pyrimidin-6-yl)amino)-3,4-dihydroisoquinolin-2 (1H)-yl)methyl)piperidin-1-yl)-2-oxoethyl)amino)-2-(2,6-dioxopiperidin-3-yl)isoindoline-1,3-dione], for which the DC50 was in the range of 0.1 to 10 nM. In the case of `COc1ccc(C(=O)N2CCC(CC(=O)N3CCc4cc(Nc5ncc6c(Nc7c(C)cccc7C)nn(C)c6n5)ccc4C3)CC2)cc1N1CCC(=O)NC1=O` [Compound 111, 1-(5-(4-(2-(6-((3-((2,6-Dimethylphenyl)amino)-1-methyl-1H-pyrazolo[3,4-d]pyrimidin-6-yl)amino)-3,4-dihydroisoquinolin-2 (1H)-yl)-2-oxoethyl)piperidine-1-carbonyl)-2-methoxyphenyl)dihydropyrimidine-2,4 (1H,3H)-dione], the DC50 lay in the range of 10 to 1000 nM. Take `COc1ccc(C(=O)N2CCC(CC(=O)N3CCc4ccc(Nc5ncc6c(Nc7c(C)cccc7C)nn(C)c6n5)cc4C3)CC2)cc1N1CCC(=O)NC1=O` [Compound 112, 1-(5-(4-(2-(7-((3-((2,6-Dimethylphenyl)amino)-1-methyl-1H-pyrazolo[3,4-d]pyrimidin-6-yl)amino)-3,4-dihydroisoquinolin-2 (1H)-yl)-2-oxoethyl)piperidine-1-carbonyl)-2-methoxyphenyl)dihydropyrimidine-2,4 (1H,3H)-dione]: the DC50 lay within 1000 to 10000 nM.

With `Cc1cccc(C)c1Nc1nn(C)c2nc(Nc3ccc4c(c3)CN(CC(=O)N3CCC(Oc5ccc6c(c5)C(=O)N(C5CCC(=O)NC5=O)C6)CC3)CC4)ncc12` (stereo not shown) [Compound 116, 3-(6-((1-(2-(7-((3-((2,6-dimethylphenyl)amino)-1-methyl-1H-pyrazolo[3,4-d]pyrimidin-6-yl)amino)-3,4-dihydroisoquinolin-2 (1H)-yl)acetyl)piperidin-4-yl)oxy)-1-oxoisoindolin-2-yl)piperidin-2,6-one], the DC50 is 1000 to 10000 nM. As to `Cc1cccc(C)c1Nc1nn(C)c2nc(Nc3ccc4c(c3)CN(C(=O)CN3CCC(Oc5ccc6c(c5)C(=O)N(C5CCC(=O)NC5=O)C6)CC3)CC4)ncc12` (stereo not shown) [Compound 117, 3-(6-((1-(2-(7-((3-((2,6-dimethylphenyl)amino)-1-methyl-TH-pyrazolo[3,4-d]pyrimidin-6-yl)amino)-3,4-dihydroisoquinolin-2 (1H)-yl)-2-oxoethyl)piperidin-4-yl)oxy)-1-oxoisoindolin-2-yl)piperidin-2,6-one], the DC50 was 1000 to 10000 nM. `COc1ccc(Nc2nn(C)c3nc(Nc4ccc5c(c4)CN(CC4CCN(c6ccc7c(c6)C(=O)N(C6CCC(=O)NC6=O)C7=O)CC4)CC5)ncc23)c(C)c1` (stereo not shown) [Compound 118, 2-(2,6-Dioxopiperidin-3-yl)-5-(4-((7-((3-((4-methoxy-2-methylphenyl)amino)-1-methyl-1H-pyrazolo[3,4-d]pyrimidin-6-yl)amino)-3,4-dihydroisoquinolin-2 (1H)-yl)methyl)piperidin-1-yl)isoindoline-1,3-dione]: the DC50 was 1000 to 10000 nM. Consider `Cc1cc(F)ccc1Nc1nn(C)c2nc(Nc3ccc4c(c3)CN(CC3CCN(c5ccc6c(c5)C(=O)N(C5CCC(=O)NC5=O)C6=O)CC3)CC4)ncc12` (stereo not shown) [Compound 121, 2-(2,6-Dioxopiperidin-3-yl)-5-(4-((7-((3-((4-fluoro-2-methylphenyl)amino)-1-methyl-1H-pyrazolo[3,4-d]pyrimidin-6-yl)amino)-3,4-dihydroisoquinolin-2 (1H)-yl)methyl)piperidin-1-yl)isoindoline-1,3-dione], for which the DC50 was in the range of 10 to 1000 nM. In the case of `Cc1cc(NC(=O)c2cccc(C(F)(F)F)c2)ccc1Nc1nn(C)c2nc(Nc3ccc4c(c3)CN(CC3CCN(c5ccc6c(c5)C(=O)N(C5CCC(=O)NC5=O)C6=O)CC3)CC4)ncc12` (stereo not shown) [Compound 122, N-(4-((6-((2-((1-(2-(2,6-Dioxopiperidin-3-yl)-1,3-dioxoisoindolin-5-yl)piperidin-4-yl)methyl)-1,2,3,4-tetrahydroisoquinolin-7-yl)amino)-1-methyl-1H-pyrazolo[3,4-d]pyrimidin-3-yl)amino)-3-methylphenyl)-3-(trifluoromethyl)benzamide], the DC50 was in the range of 10 to 1000 nM. As to `Cc1cccc(C)c1Nc1nn(C)c2nc(Nc3ccc4c(c3)CN(CCNc3ccc5c(c3)C(=O)N(C3CCC(=O)NC3=O)C5=O)CC4)ncc12` (stereo not shown) [Compound 123, 5-((2-(7-((3-((2,6-Dimethylphenyl)amino)-1-methyl-1H-pyrazolo[3,4-d]pyrimidin-6-yl)amino)-3,4-dihydroisoquinolin-2 (1H)-yl)ethyl)amino)-2-(2,6-dioxopiperidin-3-yl)isoindoline-1,3-dione], the half-maximal degradation concentration (DC50) lay within 10 to 1000 nM.
